In PMC4428071, “Structural basis for epitope masking and strain specificity of a conserved epitope in an intrinsically disordered malaria vaccine candidate” (Scientific Reports, 2015):

system: not listed separately; assay: Aggregation tendency of peptides on resuspension for HPLC purification; type: physicochemical; details: crude peptide resuspended for HPLC purification; had to be resuspended in 10 mM acetic acid at 1 mg/mL
Experimental: (§1) mM scale) using a three-fold equivalent of FMOC-protected amino acid, HCTU and DIPEA in DMF per cycle. Each amino acid coupling was carried out for 30 min at room temperature with continuous shaking. Chain deprotection was carried out in 50% piperidine in DMF for 2 min. Each step in the cycle was terminated with an extensive DMF wash. Peptides were N-terminally acetylated after the last coupling and deprotected, using a three-fold equivalent of acetic anhydride and Dipea in DMF.
The fully assembled peptides were dried under vacuum and cleaved for 3 h in a mixture of TFA:TIPS:water (95:2.5:2.5 v/v). The cleaved material was precipitated in cold diethyl ether overnight at -20 °C. […]
MSP2 peptides were purified on a reverse-phase C18 column (Zorbax, 10 x 300 mm) using a linear gradient of 5 to 40% of solvent B (90% acetonitrile / 9.9% water / 0.1% TFA) against solvent A (0.1% TFA in water) over 40 min. The purity of MSP2 peptides was assessed by mass spectrometry (LC-MS).
Affinity measurements. Binding affinity constants of 6D8 antibodies (IgG and scFv) for synthetic peptides and recombinant allelic forms of MSP2 were determined by isothermal titration calorimetry (Microcal ITC-200, GE Healthcare) using either murine mAb 6D8 produced and affinity-purified by the Walter and Eliza Hall Institute antibody facility3 or 6D8 scFv. […]

| Substance | Tendency to aggregate |
| --- | --- |
| INNAYNMS [MSP2_12-19, N-acetylated, C-amidated synthetic peptide, residues 12-19 of MSP2] | high tendency |
| NNAYNMSI [MSP2_13-20, N-acetylated, C-amidated synthetic peptide, residues 13-20 of MSP2] | high tendency |

molecular target: mAb 6D8; assay: SPR binding of synthetic MSP2 peptides to immobilized (captured) mAb 6D8; design: species or system mouse; details: Biacore T200, mAb 6D8 captured with Mouse Antibody Capture kit, peptides in 20 mM HEPES, 150 mM NaCl, 3 mM EDTA, 0.05 % Tween20, pH 7.4, from concentration dependence of steady-state responses, ± standard deviation of three replicate experiments
Experimental: To explore the structural basis of epitope masking, it was necessary to first define the minimal epitope of mAb 6D8. […]
as §1
The fully assembled peptides were dried under vacuum and cleaved for 3 h in a mixture of TFA:TIPS:water (95:2.5:2.5 v/v). The cleaved material was precipitated in cold diethyl ether overnight at -20 °C. T he insoluble peptide material was spun down at 4,000 rpm for 30 min at 4 °C and the pellet washed twice in cold diethyl ether prior to removal of the organic phase.
The crude peptide mixture was resuspended in 50% acetonitrile/0.1% TFA, filtered and freeze-dried prior to HPLC purification.
2 mg/mL for HPLC purification. […]
linear gradient of 5 to 40% of solvent B (90% acetonitrile / 9.9% water / 0.1% TFA) against solvent A (0.1% TFA in water) over 40 min. […]
mass spectrometry (LC-MS).
Affinity measurements. […]
Where low peptide solubility precluded ITC measurements, affinity was estimated by surface plasmon resonance (SPR) (Biacore T200, GE Healthcare) using a Mouse Antibody Capture kit (GE Healthcare). Synthetic peptides were resuspended in running buffer (20 mM HEPES, 150 mM NaCl, 3 mM EDTA, 0.05 % Tween20, pH 7.4) and injected over the 6D8-captured

| Substance | Kd [nM] |
| --- | --- |
| Ac-AYNMSIRR-NH2 [MSP2_15-22] | 87 ± 21 |
| Ac-AYNMSIRRS-NH2 [MSP2_15-23] | 34 ± 12 |
| Ac-FINNAYNMSIRRS-NH2 [MSP2_11-23] | 6 ± 3 |
| Ac-NAYNMSIRR-NH2 [MSP2_14-22] | 6 ± 2 |

same assay, conditions: at up to 1 μM peptide concentration

| Substance | Binding to immobilized mAb 6D8 (in words) |
| --- | --- |
| Ac-AYNMSIRR-NH2 [MSP2_15-22] | detectable binding |
| NAYNMSIR [MSP2_14-21, N-acetylated, C-amidated synthetic peptide, residues 14-21 of MSP2] | abolishes binding |
| YNMSIRRS [MSP2_16-23, N-acetylated, C-amidated synthetic peptide, residues 16-23 of MSP2] | abolishes binding |
